This is an account of results in patent US11203587B2, “Thyroid hormone receptor beta agonist compounds” (Terns, Inc., priority 2018, dated 2021).

For one assay, the target named is T1, THR alpha-LBD (Homo sapiens, UniProt P10827).
T1 construct: THR alpha-LBD (0.4 nM final concentration) or THR beta-LBD (1.0 nM final concentration) was added; purchased ThermoFisher
The assay is described as follows: LanthaScreen TR-FRET Thyroid Receptor alpha Coactivator Assay. The class given is biochemical. Conditions: 2 hours incubation at room temperature, run in duplicate multiple times, average data, read-out: EC50 THRα-FRET. As for the experimental part: Example B1: Time-Resolved Fluorescence Resonance Energy Transfer (TR-FRET) Assay for Thyroid Hormone Receptor Agonist Screening
LanthaScreen™ TR-FRET Thyroid Receptor alpha Coactivator Assay kit (ThermoFisher) and LanthaScreen™ TR-FRET Thyroid Receptor beta Coactivator Assay kit (ThermoFisher) were used for agonist compound screening. Compounds in DMSO were diluted using ECHO Liquid Handler (Labcyte Inc.) into 384 plates in 10-point 3-fold series in duplicate (5 micro M final top concentration). Buffer C (ThermoFisher) was added to each well before the 4× mixture of fluorescein-SCR2-2 coactivator (200 nM final concentration), Terbium-labeled anti-GST antibody (2 nM final concentration), and THR alpha-LBD (0.4 nM final concentration) or THR beta-LBD (1.0 nM final concentration) was added. After 2 hours incubation at room temperature in the dark, the TR-FRET signal was measured on an EnVision plate reader (PerkinElmer) with excitation at 340 nm and dual emission readout at 495 and 520 nm with the delay time of 100 micro second and the integration time of 200 micro second. The ratio of emission signal at 520 and at 495 was used to calculate EC50 using GraphPad Prism (GraphPad Software). […] Compounds' THR-beta selectivity values in Table 2 are derived from T3-selectivity normalized data.

For another assay, the target named is T2, THR beta-LBD (Homo sapiens, UniProt P10828).
T2 construct: THR alpha-LBD (0.4 nM final concentration) or THR beta-LBD (1.0 nM final concentration) was added; purchased ThermoFisher
T2 sequence (P10828 217-461 limits assumed): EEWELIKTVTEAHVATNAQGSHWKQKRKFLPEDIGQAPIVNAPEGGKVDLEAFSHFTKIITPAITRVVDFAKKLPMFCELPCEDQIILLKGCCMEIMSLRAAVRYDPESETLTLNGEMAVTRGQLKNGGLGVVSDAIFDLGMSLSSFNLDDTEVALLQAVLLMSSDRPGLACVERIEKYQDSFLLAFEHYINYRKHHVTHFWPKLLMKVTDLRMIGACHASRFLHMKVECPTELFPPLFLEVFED
The assay is described as follows: LanthaScreen TR-FRET Thyroid Receptor beta Coactivator Assay. The note with it: for THRβ-Selectivity: THR beta over THR alpha, derived from T3-selectivity normalized data; for EC50: TR-FRET coactivator assay, 2 hours incubation at room temperature, run in duplicate multiple times, average data, read-out: EC50 THRβ-FRET. The class given is biochemical. As to the method:
LanthaScreen™ TR-FRET Thyroid Receptor alpha Coactivator Assay kit (ThermoFisher) and LanthaScreen™ TR-FRET Thyroid Receptor beta Coactivator Assay kit (ThermoFisher) were used for agonist compound screening. […] Buffer C (ThermoFisher) was added to each well before the 4× mixture of fluorescein-SCR2-2 coactivator (200 nM final concentration), Terbium-labeled anti-GST antibody (2 nM final concentration), and THR alpha-LBD (0.4 nM final concentration) or THR beta-LBD (1.0 nM final concentration) was added.

A value given as a limit tells only on which side of the number the result lay.

T1 sequence (P10827 163-410 isoform P10827-2 limits assumed, other chains not shown): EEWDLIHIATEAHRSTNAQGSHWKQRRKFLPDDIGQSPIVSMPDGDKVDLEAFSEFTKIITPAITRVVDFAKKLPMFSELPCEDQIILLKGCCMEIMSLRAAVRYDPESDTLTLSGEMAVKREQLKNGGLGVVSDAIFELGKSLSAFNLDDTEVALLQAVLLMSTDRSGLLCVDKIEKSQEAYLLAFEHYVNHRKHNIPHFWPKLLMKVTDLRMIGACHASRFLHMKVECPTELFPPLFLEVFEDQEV

For `C[C@@H](O)c1cc(Oc2c(Cl)cc(-c3nn(C)c(=O)[nH]c3=O)cc2Cl)n[nH]c1=O` (single isomer, unassigned) [Compound 31 P1], the EC50 (as a rule, the concentration at which the effect is half-maximal) was greater than 5000 nM on THR alpha-LBD and 1200 nM on THR beta-LBD. For the same molecule, the THRβ-Selectivity at THR beta-LBD (listed as 31 P1) was greater than 26.2.
On to `C[C@@H](O)c1cc(Oc2c(Cl)cc(-c3nn(C)c(=O)[nH]c3=O)cc2Cl)n[nH]c1=O` (single isomer, unassigned) [Compound 31 P2], for which the EC50 on THR alpha-LBD stood at 3080 nM. At THR beta-LBD, the THRβ-Selectivity is 21.7 and the EC50 was 452 nM.
For `CC[C@@H](C)c1cc(Oc2c(Cl)cc(-c3n[nH]c(=O)[nH]c3=O)cc2Cl)n[nH]c1=O` (single isomer, unassigned) [Compound 33 P1], the values for the EC50 at THR alpha-LBD and at THR beta-LBD were 2430 nM and 696 nM, respectively. Moreover, on THR beta-LBD (listed as 33 P1), the THRβ-Selectivity stood at 11.3.
In the case of `CC[C@@H](C)c1cc(Oc2c(Cl)cc(-c3n[nH]c(=O)[nH]c3=O)cc2Cl)n[nH]c1=O` (single isomer, unassigned) [Compound 33 P2], the EC50 is 274 nM at THR alpha-LBD and 65.7 nM on THR beta-LBD. The THRβ-Selectivity at THR beta-LBD (listed as 33 P2) is on record as 14.1.
With `CC(C)c1cc(Oc2c(Cl)cc(-c3n[nH]c(=O)[nH]c3=O)cc2Cl)nn(C)c1=O` [Compound 1, 6-(3,5-dichloro-4-((5-isopropyl-1-methyl-6-oxo-1,6-dihydropyridazin-3-yl)oxy)phenyl)-1,2,4-triazine-3,5(2H,4H)-dione], the EC50 at THR alpha-LBD came to 79.2 nM; at THR beta-LBD, 24.7 nM. At THR beta-LBD, this molecule had a THRβ-Selectivity of 17.
For `CC(C)c1cc(Oc2c(Cl)cc(-c3n[nH]c(=O)[nH]c3=O)cc2Cl)n[nH]c1=O` [Compound 2, 6-(3,5-dichloro-4-((5-isopropyl-6-oxo-1,6-dihydropyridazin-3-yl)oxy)phenyl)-1,2,4-triazine-3,5(2H,4H)-dione], in that order: 681 nM, 141 nM and 27.7.
In the case of `CC(C)c1cc(Oc2c(Cl)cc(-c3nn(C)c(=O)[nH]c3=O)cc2Cl)n[nH]c1=O` [Compound 3, 6-(3,5-dichloro-4-((5-isopropyl-6-oxo-1,6-dihydropyridazin-3-yl)oxy)phenyl)-2-methyl-1,2,4-triazine-3,5(2H,4H)-dione], the EC50 on THR alpha-LBD amounted to 1230 nM. In addition, at THR beta-LBD, the THRβ-Selectivity was determined as 69.8 and the concentration for a half-maximal effect (EC50) stood at 114 nM.
Turning to `CC(C)c1cc(Oc2c(Cl)cc(-c3nn(C(C)C)c(=O)[nH]c3=O)cc2Cl)n[nH]c1=O` [Compound 4, 6-(3,5-dichloro-4-((5-isopropyl-6-oxo-1,6-dihydropyridazin-3-yl)oxy)phenyl)-2-isopropyl-1,2,4-triazine-3,5(2H,4H)-dione], the EC50 on THR alpha-LBD was greater than 5000 nM. At THR beta-LBD, the THRβ-Selectivity is greater than 3.0 and the EC50 was greater than 5000 nM.
In the case of `Cc1c(-c2n[nH]c(=O)[nH]c2=O)cc(Cl)c(Oc2cc(C(C)C)c(=O)n(C)n2)c1Cl` [Compound 5, 6-(3,5-dichloro-4-((5-isopropyl-1-methyl-6-oxo-1,6-dihydropyridazin-3-yl)oxy)-2-methylphenyl)-1,2,4-triazine-3,5(2H,4H)-dione], the concentration giving a half-maximal response (EC50) on THR alpha-LBD came out at 62.6 nM. Besides, on THR beta-LBD, the THRβ-Selectivity was determined as 2.3 and the half-maximal effective concentration (EC50) stood at 98.6 nM.
For `O=c1[nH]nc(-c2cc(Cl)c(Oc3cc(C4CC4)c(=O)[nH]n3)c(Cl)c2)c(=O)[nH]1` [Compound 6, 6-(3,5-dichloro-4-((5-cyclopropyl-6-oxo-1,6-dihydropyridazin-3-yl)oxy)phenyl)-1,2,4-triazine-3,5(2H,4H)-dione], the EC50 on THR alpha-LBD stood at 981 nM. At THR beta-LBD, the THRβ-Selectivity is 23.6 and the EC50 was determined as 196 nM.
Consider `CC(C)c1cc(C(=O)c2c(Cl)cc(-c3n[nH]c(=O)[nH]c3=O)cc2Cl)nn(C)c1=O` [Compound 7, 6-(3,5-dichloro-4-(5-isopropyl-1-methyl-6-oxo-1,6-dihydropyridazine-3-carbonyl)phenyl)-1,2,4-triazine-3,5(2H,4H)-dione], for which, on THR alpha-LBD, the EC50 was 435 nM. In addition, on THR beta-LBD, the THRβ-Selectivity is on record as 15.3 and the EC50 was 136 nM.
